Data set [1] concerns Rattus norvegicus. Put plainly: Antidiabetic activity in Zucker diabetic fatty rat assessed as reduction in plasma glucose level at 3 mg/kg, po administered once daily for 14 days measured on day 15 relative to control. The data set is classed as functional. The arrangement: scale not given: the % may be the effect or the level left.
The subject of data set [2] is Rattus norvegicus. As to the kind of experiment: Toxicity in Zucker diabetic fatty rat assessed as body weight gain at 3 mg/kg, po administered once daily for 14 days relative to control. Format: organism-based. The settings on record: in vivo, 336 h.
Data set [3] deals with Rattus norvegicus. Put plainly: Antidiabetic activity in Zucker diabetic fatty rat assessed as reduction in plasma glucose level administered orally once daily for 21 days measured on day 22. The data set is classed as functional, organism-based.
Data set [4] relates to Rattus norvegicus. Put plainly: Antidiabetic activity in Zucker diabetic fatty rat assessed as reduction in plasma glucose level at 0.3 mg/kg, po administered once daily for 21 days measured on day 22 relative to control. The data set is classed as functional. The arrangement: scale not given: the % may be the effect or the level left.
The nature of data set [5]: Cmax in Zucker diabetic fatty rat at 0.3 mg/kg, po administered once daily for 21 days followed by additional administration on day 22. The data set is classed as ADME, organism-based. The arrangement: dose 0.3 mg/kg, route oral. To be noted: in vivo.
A short description of data set [6]: Tmax in Zucker diabetic fatty rat at 0.3 mg/kg, po administered once daily for 21 days followed by additional administration on day 22. Format: ADME, organism-based. The settings on record: in vivo.
Data set [7] is described as follows: AUC (0 to 24 hrs) in Zucker diabetic fatty rat at 0.3 mg/kg, po administered once daily for 21 days followed by additional administration on day 22. The arrangement: dose 0.3 mg/kg, time < 24 hr, route oral. The data set is classed as ADME, organism-based. To be noted: in vivo.
A short description of data set [8]: Cmax in F344/DuCrlCrlj rat at 50 mg/kg, po via gavage measured on day 28 post dose. The data set is classed as ADME, organism-based. The arrangement: dose 50 mg/kg, route oral. The settings on record: in vivo.
A short description of data set [9]: AUC (0 to 24 hrs) in F344/DuCrlCrlj rat at 50 mg/kg, po via gavage measured on day 28 post dose. The data set is classed as ADME, organism-based. The arrangement: time < 24 hr, dose 50 mg/kg, route oral. The settings on record: in vivo.
The nature of data set [10]: Drug uptake in F344/DuCrlCrlj rat plasma administered via oral gavage measured on day 28 post dose. The data set is classed as ADME.
For data set [11], the system named is Rattus norvegicus. Put plainly: Toxicity in F344/DuCrlCrlj rat assessed as death at 50 mg/kg, po administered via gavage once daily for 28 days. The data set is classed as organism-based. The settings on record: in vivo, 672 h.
In data set [12] the test system is Rattus norvegicus. As to the kind of experiment: Toxicity in F344/DuCrlCrlj rat assessed as clinical abnormality at 50 mg/kg, po administered via gavage once daily for 28 days. The data set is classed as organism-based. To be noted: in vivo, 672 h.
Data set [13] deals with Rattus norvegicus. As to the kind of experiment: Toxicity in F344/DuCrlCrlj rat assessed as body weight gain at 50 mg/kg, po administered via gavage once daily for 28 days relative to control. Format: organism-based. The settings on record: in vivo, 672 h.
Data set [14] deals with Rattus norvegicus. Put plainly: Toxicity in F344/DuCrlCrlj rat assessed as reduction in RBC count at 50 mg/kg, po administered via gavage once daily for 28 days relative to control. The settings on record: in vivo, 672 h. The data set is classed as organism-based. The arrangement: scale not given: the % may be the effect or the level left.
Data set [15] concerns Rattus norvegicus. As to the kind of experiment: Toxicity in F344/DuCrlCrlj rat assessed as effect on hematocrit at 50 mg/kg, po administered via gavage once daily for 28 days. The data set is classed as organism-based. To be noted: in vivo, 672 h.
Data set [16] has as its system Rattus norvegicus. Put plainly: Toxicity in F344/DuCrlCrlj rat assessed as increase in heart weight at 50 mg/kg, po administered via gavage once daily for 28 days. The data set is classed as organism-based. To be noted: in vivo, 672 h.
Data set [17] relates to Rattus norvegicus. As to the kind of experiment: Toxicity in F344/DuCrlCrlj rat assessed as effect on kidney weight at 50 mg/kg, po administered via gavage once daily for 28 days. The data set is classed as organism-based. To be noted: in vivo, 672 h.
The test system of data set [18] is Rattus norvegicus. Put plainly: Toxicity in F344/DuCrlCrlj rat assessed as effect on ovary weight at 50 mg/kg, po administered via gavage once daily for 28 days. The data set is classed as organism-based. The settings on record: in vivo, 672 h.
Data set [19] deals with T1, Peroxisome proliferator-activated receptor gamma (Homo sapiens) (UniProt P37231).
T1 sequence (whole entry): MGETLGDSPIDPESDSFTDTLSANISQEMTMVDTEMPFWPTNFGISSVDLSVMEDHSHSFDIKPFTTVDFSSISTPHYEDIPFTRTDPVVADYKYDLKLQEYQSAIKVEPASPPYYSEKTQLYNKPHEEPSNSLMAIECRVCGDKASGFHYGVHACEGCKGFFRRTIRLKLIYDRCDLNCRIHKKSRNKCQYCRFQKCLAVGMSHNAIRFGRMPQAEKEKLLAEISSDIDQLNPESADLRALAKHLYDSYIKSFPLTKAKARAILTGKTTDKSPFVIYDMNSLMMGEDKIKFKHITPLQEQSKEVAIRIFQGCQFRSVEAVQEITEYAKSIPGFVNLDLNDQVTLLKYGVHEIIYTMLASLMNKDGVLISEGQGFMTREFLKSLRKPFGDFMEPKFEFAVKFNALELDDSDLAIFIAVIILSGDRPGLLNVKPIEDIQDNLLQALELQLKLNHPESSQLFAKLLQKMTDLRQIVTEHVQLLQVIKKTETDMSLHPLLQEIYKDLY
As to the kind of experiment: Agonist activity at recombinant human GAL4-TAD fused PPARgamma LBD assessed as induction of GAL4-DBD fused RIP140e184b co-factor recruitment after 24 to 48 hrs by fluorescence assay.

Data set [20] has as its target T1, Peroxisome proliferator-activated receptor gamma (Homo sapiens). As to the kind of experiment: Agonist activity at recombinant human GAL4-TAD fused PPARgamma LBD assessed as induction of GAL4-DBD fused TRAP220 co-factor recruitment after 24 to 48 hrs by fluorescence assay.
For data set [21] the target is unchanged. As to the kind of experiment: Agonist activity at recombinant human GAL4-TAD fused PPARgamma LBD assessed as induction of GAL4-DBD fused CBP co-factor recruitment after 24 to 48 hrs by fluorescence assay.
Data set [22] has the same target. Put plainly: Agonist activity at recombinant human GAL4-TAD fused PPARgamma LBD assessed as induction of GAL4-DBD fused SRC1 co-factor recruitment after 24 to 48 hrs by fluorescence assay.
For data set [23] the target is unchanged. As to the kind of experiment: Agonist activity at recombinant human GAL4-TAD fused PPARgamma LBD assessed as induction of GAL4-DBD fused NCoA3 co-factor recruitment after 24 to 48 hrs by fluorescence assay.
A short description of data set [24]: in vivo. To be noted: F344/DuCrlCrlj, rat, po, 50 mg/kg.
Description: Tmax in F344/DuCrlCrlj rat at 50 mg/kg, po via gavage measured on day 28 post dose

Active and inactive are the calls of the source. No cut-off for these calls is given here.

For orientation: Cmax means the maximum level reached in the sampled fluid or tissue. Usually Tmax stands for the time from dosing to the highest level. The term AUC denotes the area under the concentration-time curve, a measure of exposure. Regarding `CN(CCOc1ccc(CC2SC(=O)NC2=O)cc1)c1ccccn1` (centres undefined) [ROSIGLITAZONE], the Activity in data set [1] was 40.3%; in data set [2], 12.6%; in [3], “Dose-dependent effect”; in data set [4] it was 50%; in data set [11], “Non-Toxic”; in data set [12], “Non-Toxic”. Also, the Activity in [13] is 10%; in data set [14], 13%; in [15] it was “Non-Toxic”; in [16] it was 18%; in data set [17], “Toxic”; in data set [18], “Toxic”. The results for the Cmax in [5] and in data set [8] were 1040 ng/mL and 67600 ng/mL, respectively. For the same compound, the values for the Tmax in data set [6] and in data set [24] were 1.6 h and 1 h, respectively. Besides, the AUC at 24 h is 6.55 µg·h/mL in data set [7] and 525 µg·h/mL in [9]. Also, in data set [10], the Drug uptake entry is “Dose-dependent effect”. Further, the outcome in data set [19], in data set [20], in data set [21], in data set [22] and in data set [23] was Active.

Values taken from ChEMBL document CHEMBL4152362, “Discovery of DS-6930, a potent selective PPARγ modulator. Part II: Lead optimization” (Bioorg Med Chem, 2018).
